Experiment [1] deals with T1, Interstitial collagenase (Homo sapiens) (UniProt P03956).
T1 sequence (whole entry): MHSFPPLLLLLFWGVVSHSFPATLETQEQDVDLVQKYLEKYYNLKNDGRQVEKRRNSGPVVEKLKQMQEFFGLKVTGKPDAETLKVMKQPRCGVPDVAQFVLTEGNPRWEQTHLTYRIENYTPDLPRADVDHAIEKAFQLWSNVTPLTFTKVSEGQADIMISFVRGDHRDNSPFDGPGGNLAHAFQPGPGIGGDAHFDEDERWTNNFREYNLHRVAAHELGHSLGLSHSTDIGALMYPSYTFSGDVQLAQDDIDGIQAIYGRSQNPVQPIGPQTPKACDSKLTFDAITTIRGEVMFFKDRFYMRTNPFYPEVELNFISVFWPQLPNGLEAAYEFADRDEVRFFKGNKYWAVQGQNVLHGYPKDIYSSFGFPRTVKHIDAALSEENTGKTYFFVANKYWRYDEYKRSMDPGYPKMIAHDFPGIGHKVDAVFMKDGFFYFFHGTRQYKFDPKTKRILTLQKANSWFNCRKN
In words: Inhibition of MMP-1 (unknown origin) using FRET substrate preincubated for 5 mins followed by substrate addition and measured after 30 mins by fluorescence assay. Conditions: dose 25-100 µM, time 35.0 min, DDE = dose-dependent effect.

In experiment [2] the target is T1, Interstitial collagenase (Homo sapiens). As to the kind of experiment: (§1) Binding affinity to human MMP-1 catalytic domain (100 to 269 residues) expressed in Escherichia coli BL21 Star (DE3) by SPR analysis. Conditions: DDE = dose-dependent effect.
Experiment [3] has as its target Actin, cytoplasmic 1 (Mus musculus) (UniProt P60710). As to the kind of experiment: Binding affinity to beta-actin in mouse B16-F10 cell lysate by pull down assay. The class given is subcellular.
Experiment [4] concerns the target Heat shock cognate 71 kDa protein (Mus musculus) (UniProt P63017). In words: Binding affinity to HSP73 in mouse B16-F10 cell lysate by Western blot analysis. It counts as subcellular.
Experiment [5] concerns the target Actin, cytoplasmic 1 (Mus musculus) (UniProt P60710). As to the kind of experiment: Binding affinity to beta-actin in mouse B16-F10 cell lysate by Western blot analysis. It counts as subcellular.
The test system of experiment [6] is B16-F10. In words: Binding affinity to MMP-1 in mouse B16-F10 cell lysate by Western blot analysis. It counts as subcellular.
The target of experiment [7] is Mitogen-activated protein kinase kinase kinase 11 (Mus musculus) (UniProt Q80XI6). As to the kind of experiment: Binding affinity to MLK3 in mouse B16-F10 cell lysate by pull down assay. The class given is subcellular.
Chain of Mitogen-activated protein kinase kinase kinase 11 (Mus musculus) (Q80XI6 whole entry, looked up, the tested form may be a part): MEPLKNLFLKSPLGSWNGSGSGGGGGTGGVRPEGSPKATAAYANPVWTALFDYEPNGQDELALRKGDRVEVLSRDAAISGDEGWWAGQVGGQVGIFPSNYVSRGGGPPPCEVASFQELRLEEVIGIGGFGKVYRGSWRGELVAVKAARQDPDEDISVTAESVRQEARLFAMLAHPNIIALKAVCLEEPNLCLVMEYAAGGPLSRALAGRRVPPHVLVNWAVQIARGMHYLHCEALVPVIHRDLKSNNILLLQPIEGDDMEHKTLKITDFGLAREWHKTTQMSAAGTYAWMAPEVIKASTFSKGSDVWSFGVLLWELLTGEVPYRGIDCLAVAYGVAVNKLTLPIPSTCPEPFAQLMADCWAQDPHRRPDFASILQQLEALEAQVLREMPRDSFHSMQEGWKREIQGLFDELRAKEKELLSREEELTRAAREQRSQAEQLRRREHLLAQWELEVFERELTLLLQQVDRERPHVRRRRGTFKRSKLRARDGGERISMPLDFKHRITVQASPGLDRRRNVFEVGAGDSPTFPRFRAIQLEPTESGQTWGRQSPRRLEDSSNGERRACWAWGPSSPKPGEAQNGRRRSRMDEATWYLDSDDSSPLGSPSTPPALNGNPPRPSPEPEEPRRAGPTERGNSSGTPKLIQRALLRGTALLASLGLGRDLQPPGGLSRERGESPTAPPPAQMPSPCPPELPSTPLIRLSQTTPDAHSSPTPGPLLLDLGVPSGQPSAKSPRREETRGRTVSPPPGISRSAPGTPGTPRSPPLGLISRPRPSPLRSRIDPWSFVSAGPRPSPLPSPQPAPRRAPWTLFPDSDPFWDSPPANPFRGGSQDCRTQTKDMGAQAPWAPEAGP
The target of experiment [8] is T1, Interstitial collagenase (Homo sapiens). In words: Binding affinity to human 15N-labelled MMP-1 catalytic domain (100 to 269 residues) expressed in Escherichia coli BL21 Star (DE3) assessed as chemical shift perturbation at E99 residue at 500 uM by 1H-15N HSQC spectra analysis.
The test system of experiment [9] is B16-F10. As to the kind of experiment: Binding affinity to MMP-1 in mouse B16-F10 cell lysate by pull down assay. It counts as subcellular.
Experiment [10] concerns the target Heat shock cognate 71 kDa protein (Mus musculus) (UniProt P63017). As to the kind of experiment: Binding affinity to HSP73 in mouse B16-F10 cell lysate by pull down assay. It counts as subcellular.
Experiment [11] has as its target T2, Interstitial collagenase (Homo sapiens, UniProt P03956).
T2 sequence (P03956 whole entry): T1 sequence (whole entry)
The experiment is described as §1.

Experiment [12] addresses T1, Interstitial collagenase (Homo sapiens). In words: Binding affinity to human 15N-labelled MMP-1 catalytic domain (100 to 269 residues) expressed in Escherichia coli BL21 Star (DE3) assessed as chemical shift perturbation at F97 residue at 500 uM by 1H-15N HSQC spectra analysis.

Activity calls are given as the source filed them. The calls are words filed in the database; no cut-off is given here.

Chain of Heat shock cognate 71 kDa protein (Mus musculus) (P63017 whole entry): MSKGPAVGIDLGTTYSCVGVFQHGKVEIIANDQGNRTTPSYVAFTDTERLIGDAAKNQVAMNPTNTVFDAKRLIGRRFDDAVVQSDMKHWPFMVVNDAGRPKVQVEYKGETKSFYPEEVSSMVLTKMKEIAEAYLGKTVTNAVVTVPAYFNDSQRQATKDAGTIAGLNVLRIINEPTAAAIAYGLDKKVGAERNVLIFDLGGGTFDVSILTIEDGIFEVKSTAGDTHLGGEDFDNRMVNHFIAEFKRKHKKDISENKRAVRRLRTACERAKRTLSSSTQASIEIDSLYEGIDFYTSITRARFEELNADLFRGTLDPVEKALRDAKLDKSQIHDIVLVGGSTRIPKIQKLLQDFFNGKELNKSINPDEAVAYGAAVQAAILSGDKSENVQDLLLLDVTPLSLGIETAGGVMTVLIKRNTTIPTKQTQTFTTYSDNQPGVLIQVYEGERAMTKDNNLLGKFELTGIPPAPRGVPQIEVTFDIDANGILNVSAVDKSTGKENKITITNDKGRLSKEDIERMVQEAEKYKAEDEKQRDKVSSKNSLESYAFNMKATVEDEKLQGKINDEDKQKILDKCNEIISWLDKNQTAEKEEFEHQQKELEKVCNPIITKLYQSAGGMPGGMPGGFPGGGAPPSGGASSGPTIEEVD

Consider `O=c1c(O)c(-c2ccc(O)c(O)c2)oc2cc(O)cc(O)c12`, for which the inhibition entry in experiment [1] is “Dde”. Further, the Activity entry in experiment [2] is “Dde”.
Regarding `COc1c(-c2ccc(O)c(O)c2)oc2cc(O)cc(O)c2c1=O` [3-O-METHYLQUERCETIN], the result in experiment [3], in experiment [4], in experiment [5], in experiment [6], in experiment [7] and in experiment [9] was Active. For the same compound, the result in [10] was Active. Moreover, the Activity is over 0.03 ppm in experiment [8], “Dde” in experiment [2] and 0.05 ppm in experiment [12]. In addition, the inhibition result in [1] is “Dde”. The compound further gave a Kd in [11] of 21.7 µM.

These data come from ChEMBL document CHEMBL5126590 (Bioorg Med Chem, 2022).
